Results published in publication PMC8956739, “A synthetic lipopeptide targeting top-priority multidrug-resistant Gram-negative pathogens” (Nature Communications, 2022).
Values after ≈ are worked out from the molar mass of the structure shown. Values joined by “and” are separate entries in the source; they are usually repeats but may differ in a detail not shown here. Equal values may be shown once. Read-outs that look alike come from different tables or passages of the source. Residues, ends and D or L forms follow the SMILES beside them.

Experiments:
[1] = tested on: A. baumannii FADDI-AB051; assay: Neutropenic mouse pneumonia model; type: in vivo; conditions: for Tukey HSD diff, Pre-treatment minus treated group (Log10 CFU/lung) / Tukey HSD diff, Vehicle minus treated group (Log10 CFU/lung): Fig. b; for Log10 CFU/lung: Figure 3b, individual mice
Protocol: (§1) The experimental methodology for the neutropenic mouse lung infection model was previously described in detail. Briefly, Swiss mice (female, 7-week-old, 22–28 g) were rendered neutropenic by intraperitoneal administration of cyclophosphamide, 4 days (150 mg/kg) and 1 day (100 mg/kg) prior to inoculation. Lung infection was established by the administration of 25 µL of early log-phase bacterial suspension (polymyxin-susceptible or resistant isolate, 4 × 10^7 CFU/mL), directly into the lungs via the trachea using a MicroSprayer™ device. Lipopeptide solutions were prepared in sterile saline. At 2 h after inoculation, mice (n = 3 or 4) were administered lipopeptide (45–240 mg/kg/d free base) or control (sterile saline) via an intraperitoneal or subcutaneous bolus injection in three divided doses every 8 h. At 0 or 24 h after the administration of lipopeptide solution or saline (control), animals were euthanized and lungs were collected and homogenized under sterile conditions. Homogenate was filtered and the filtrate was collected, serially diluted in sterile saline, and spread on nutrient agar plates. Agar plates were incubated at 37 °C overnight for bacterial colony counting and the bacterial load of the lung (log10 CFU/lung) in each mouse was calculated. In vivo efficacy was calculated as the difference of the log10 CFU/lung values between the treated mice at 24 h and the pre-treatment (control) at 0 h (Δlog10 CFU/lung = log10 [treated] CFU/lung − log10 [pre-treatment] CFU/lung).

[2] = tested on: K. pneumoniae FADDI-KP065; assay: Neutropenic mouse pneumonia model; type: in vivo; conditions: for Tukey HSD diff, Pre-treatment minus treated group (Log10 CFU/lung) / Tukey HSD diff, Vehicle minus treated group (Log10 CFU/lung): Fig. c; for Log10 CFU/lung: Figure 3c, individual mice
Protocol: as §1

[3] = tested on: P. aeruginosa FADDI-PA038; assay: Neutropenic mouse pneumonia model; type: in vivo; conditions: for Tukey HSD diff, Pre-treatment minus treated group (Log10 CFU/lung) / Tukey HSD diff, Vehicle minus treated group (Log10 CFU/lung): Fig. a; for Log10 CFU/lung: Figure 3a, individual mice
Protocol: as §1

[4] = tested on: A. baumannii FADDI-AB156; assay: Neutropenic mouse pneumonia model, polymyxin-resistant isolate; type: in vivo; conditions: for Tukey HSD diff, Pre-treatment minus treated group (Log10 CFU/lung) / Tukey HSD diff, Vehicle minus treated group (Log10 CFU/lung): Fig. e; for Log10 CFU/lung: Figure 3e, individual mice
Protocol: as §1

[5] = tested on: K. pneumoniae FADDI-KP132 (mcr-1 positive); assay: as above; type: in vivo; conditions: for Tukey HSD diff, Pre-treatment minus treated group (Log10 CFU/lung) / Tukey HSD diff, Vehicle minus treated group (Log10 CFU/lung): Fig. f; for Log10 CFU/lung: Figure 3f, individual mice
Protocol: as §1

[6] = tested on: P. aeruginosa FADDI-PA102; assay: as above; type: in vivo; conditions: for Tukey HSD diff, Pre-treatment minus treated group (Log10 CFU/lung) / Tukey HSD diff, Vehicle minus treated group (Log10 CFU/lung): Fig. d; for Log10 CFU/lung: Figure 3d, individual mice
Protocol: as §1

[7] = tested on: P. aeruginosa FADDI-PA102; assay: MIC, polymyxin-resistant isolate; type: cell-based, Pseudomonas aeruginosa; conditions: carbapenem-resistant
Protocol: (§2) MICs were determined in cation-adjusted Mueller–Hinton broth (CaMHB) by the broth micro-dilution method against ATCC strains and clinical isolates. MICs in the presence of Survanta® were determined as described above against P. aeruginosa ATCC 27853. In the 100 μL of fresh CaMHB containing polymyxins, 10% Survanta® (v/v, 2.5 mg/mL phospholipids) was added. MICs in the presence and absence of Survanta® were compared to determine the effect of binding to lung surfactant on the antibacterial activity of polymyxins.

[8] = tested on: A. baumannii FADDI-AB156; assay: MIC, polymyxin-resistant isolate; type: cell-based, Acinetobacter baumannii; conditions: carbapenem-resistant
Protocol: as §2

[9] = type: in vitro ADME; conditions: plasma
Protocol: (§3) The plasma pharmacokinetic profiles of F365 and polymyxin B were assessed in Swiss mice (female, 7-week-old, 22–28 g) after a single intraperitoneal dose (5 mg/kg, n = 3). Blood samples were collected at various time points over 24 h post dosing for analysis. The plasma pharmacokinetic profiles of F365 (n = 5) and polymyxin B (1 mg/kg, n = 11) in Sprague-Dawley rats (male, 10-week-old, 280 to 330 g) were assessed after intravenous administration (1 min) of F365 and polymyxin B via an indwelling jugular vein cannula. Blood samples (~0.3 mL) were collected via an indwelling carotid artery cannula at various time points over 24 h post dosing. Urine samples were collected at 4 °C using a metabolic cage during the period between 0 and 24 h post dosing. Concentrations of F365 and polymyxin B in plasma and urine samples were determined using LC-MS/MS and pharmacokinetic analysis was conducted using WinNonlin (Pharsight Corp., Mountain View, CA). The ELF pharmacokinetic profiles of F365 and polymyxin B was determined in neutropenic Swiss mice (female, 7-week-old, 22–28 g) after subcutaneous injection (40 mg/kg, n = 3). Bronchoalveolar lavage (BAL) samples were collected at various time points over 24 h post dosing from the cannulated trachea using Milli-Q water as BAL washing media. The average volume of ELF in mice was calculated by the ratio of urea concentrations in plasma and BAL samples. Concentrations of F365 and polymyxin B in plasma and BAL were analyzed by LC-MS/MS. Pharmacokinetic parameters were calculated using a non-compartment model with WinNonlin. For mouse, rat, and human plasma protein binding of F365 and polymyxin B, pooled plasma samples (n = 3) from each species were spiked with F365 or polymyxin B. The spiked plasma samples were subjected to ultrafiltration and the corresponding filtrates were analyzed by LC-MS/MS to determine the concentration of F365 and polymyxin B and the protein binding in each species.

[10] = Plasma pharmacokinetics in mice; type: in vivo, mouse
Protocol: as §3

[11] = 45 mg/kg/d IP in three divided doses every 8 h
[12] = 90 mg/kg/d IP in three divided doses every 8 h

CC[C@@H]1NC(=O)[C@@H](CC(C)C)NC(=O)[C@H](CCN)NC(=O)[C@@H](NC(=O)[C@H](CN)NC(=O)[C@@H](NC(=O)[C@H](CCN)NC(=O)c2ccc(Cl)cc2Cl)[C@@H](C)O)CCNC(=O)[C@H]([C@@H](C)O)NC(=O)[C@H](CCN)NC(=O)[C@H](CCN)NC1=O [Lipopeptide F365] (HELM PEPTIDE1{[O=C(c1ccc(Cl)cc1Cl)[*:2]].[Dab].T.[NC[C@H](N[*:1])C(=O)[*:2]].[Dab].[Dab].[dL].[Abu].[Dab].[Dab].T}$PEPTIDE1,PEPTIDE1,5:R3-11:R2$$$V2.0)
bacterial killing in lung at 24 h vs pre-treatment inoculum [1, 11]: did not show any significant killing
bacterial killing in lung at 24 h [1, 12]: bacterial killing
Tukey HSD diff, Pre-treatment minus treated group (Log10 CFU/lung) ([1]; 45mg/kg/d): -1.2425
Tukey HSD diff, Vehicle minus treated group (Log10 CFU/lung) ([1]; 45mg/kg/d): 0.7467
Tukey HSD diff, Pre-treatment minus treated group (Log10 CFU/lung) ([1]; 90mg/kg/d): 2.8025
Tukey HSD diff, Vehicle minus treated group (Log10 CFU/lung) ([1]; 90mg/kg/d): 4.792
Log10 CFU/lung ([1]; 45mg/kg/d): 7.89 Log10 CFU/lung and 8.25 Log10 CFU/lung and 7.87 Log10 CFU/lung and 7.93 Log10 CFU/lung
Log10 CFU/lung ([1]; 90mg/kg/d): 3.25 Log10 CFU/lung and 3.88 Log10 CFU/lung and 6.08 Log10 CFU/lung and 2.55 Log10 CFU/lung
bacterial killing in lung at 24 h vs pre-treatment inoculum [2, 11]: did not show any significant killing
bacterial killing in lung at 24 h [2, 12]: bacterial killing
Tukey HSD diff, Pre-treatment minus treated group (Log10 CFU/lung) ([2]; 45mg/kg/d): 0.265
Tukey HSD diff, Vehicle minus treated group (Log10 CFU/lung) ([2]; 45mg/kg/d): 2.146
Tukey HSD diff, Pre-treatment minus treated group (Log10 CFU/lung) ([2]; 90mg/kg/d): 2.6475
Tukey HSD diff, Vehicle minus treated group (Log10 CFU/lung) ([2]; 90mg/kg/d): 4.5285
Log10 CFU/lung ([2]; 45mg/kg/d): 4.76 Log10 CFU/lung and 7.31 Log10 CFU/lung and 6.40 Log10 CFU/lung and 7.13 Log10 CFU/lung
Log10 CFU/lung ([2]; 90mg/kg/d): 5.21 Log10 CFU/lung and 3.53 Log10 CFU/lung and 3.48 Log10 CFU/lung and 3.85 Log10 CFU/lung
bacterial killing in lung at 24 h vs pre-treatment inoculum [3, 11]: did not show any significant killing
bacterial killing in lung at 24 h [3, 12]: bacterial killing
Tukey HSD diff, Pre-treatment minus treated group (Log10 CFU/lung) ([3]; 45mg/kg/d): -0.4375
Tukey HSD diff, Vehicle minus treated group (Log10 CFU/lung) ([3]; 45mg/kg/d): 2.481
Tukey HSD diff, Pre-treatment minus treated group (Log10 CFU/lung) ([3]; 90mg/kg/d): 1.005
Tukey HSD diff, Vehicle minus treated group (Log10 CFU/lung) ([3]; 90mg/kg/d): 3.9235
Log10 CFU/lung ([3]; 45mg/kg/d): 7.09 Log10 CFU/lung and 6.80 Log10 CFU/lung and 6.82 Log10 CFU/lung and 6.79 Log10 CFU/lung
Log10 CFU/lung ([3]; 90mg/kg/d): 5.12 Log10 CFU/lung and 5.34 Log10 CFU/lung and 5.83 Log10 CFU/lung and 5.44 Log10 CFU/lung
Tukey HSD diff, Pre-treatment minus treated group (Log10 CFU/lung) ([4]; 120mg/kg/d): 2.4325
Tukey HSD diff, Vehicle minus treated group (Log10 CFU/lung) ([4]; 120mg/kg/d): 3.826
Tukey HSD diff, Pre-treatment minus treated group (Log10 CFU/lung) ([4]; 240mg/kg/d): 4.209
Tukey HSD diff, Vehicle minus treated group (Log10 CFU/lung) ([4]; 240mg/kg/d): 5.603
Log10 CFU/lung ([4]; 120mg/kg/d): 4.13 Log10 CFU/lung and 5.08 Log10 CFU/lung and 3.12 Log10 CFU/lung
Log10 CFU/lung ([4]; 240mg/kg/d): 1.94 Log10 CFU/lung and 2.42 Log10 CFU/lung and 2.64 Log10 CFU/lung
reduction in CFU/lung ([5]; 240 mg/kg/d subcutaneously, 24 h, maximum over the polymyxin-resistant isolates): up to 4.65 log10 CFU/lung
Tukey HSD diff, Pre-treatment minus treated group (Log10 CFU/lung) ([5]; 120mg/kg/d): 1.795
Tukey HSD diff, Vehicle minus treated group (Log10 CFU/lung) ([5]; 120mg/kg/d): 4.6875
Tukey HSD diff, Pre-treatment minus treated group (Log10 CFU/lung) ([5]; 240mg/kg/d): 4.6475
Tukey HSD diff, Vehicle minus treated group (Log10 CFU/lung) ([5]; 240mg/kg/d): 7.54
Log10 CFU/lung ([5]; 120mg/kg/d): 4.02 Log10 CFU/lung and 5.39 Log10 CFU/lung and 2.64 Log10 CFU/lung and 2.94 Log10 CFU/lung
Log10 CFU/lung ([5]; 240mg/kg/d): 0.00 Log10 CFU/lung (2×) and 1.64 Log10 CFU/lung and 1.94 Log10 CFU/lung
Tukey HSD diff, Pre-treatment minus treated group (Log10 CFU/lung) ([6]; 120mg/kg/d): 0.69
Tukey HSD diff, Vehicle minus treated group (Log10 CFU/lung) ([6]; 120mg/kg/d): 1.074
Tukey HSD diff, Pre-treatment minus treated group (Log10 CFU/lung) ([6]; 240mg/kg/d): 3.307
Tukey HSD diff, Vehicle minus treated group (Log10 CFU/lung) ([6]; 240mg/kg/d): 3.691
Log10 CFU/lung ([6]; 120mg/kg/d): 6.56 Log10 CFU/lung and 6.03 Log10 CFU/lung and 7.00 Log10 CFU/lung
Log10 CFU/lung ([6]; 240mg/kg/d): 4.07 Log10 CFU/lung and 3.82 Log10 CFU/lung and 3.85 Log10 CFU/lung
MIC P. aeruginosa FADDI-PA102 [7]: 4 µg/mL (≈ 3.45 µM)
MIC A. baumannii FADDI-AB156 [8]: 4 µg/mL (≈ 3.45 µM)
fraction unbound ([9]; human): 0.55
fraction unbound ([9]; mouse): 0.64
fraction unbound ([9]; rat): 0.67
Plasma concentration, single mouse ([10]; 5 mg/kg IP, 0.28 h): 6.79
AUC(0-inf) ([10]; mouse, in vivo, ip, 5 mg/kg): 7920 ng·h/mL
half-life ([10]; mouse, in vivo, ip, 5 mg/kg): 18 min
